In patent US6906188B2, “Method for synthesizing epothilones and epothilone analogs” (State of Oregon acting by and through the State Board of …, priority 2001, dated 2005):
pIC50: −log10 of the molar value. Read-outs that look alike come from different tables or passages of the source.

Legend:
MCF-7 (breast) = experiment: Antiproliferative activity (growth inhibition), MCF-7 cells; assay type: cell-based; conditions: Homo sapiens
Procedure: (§1) The antiproliferative activity of cis 9,10-dehydroepothilone D and trans 9,10-dehydroepothilone D was assessed in vitro using a panel of human cancer cell lines.

HCT-116 (colon) = experiment: Antiproliferative activity (growth inhibition), HCT-116 cells; assay type: cell-based; conditions: Homo sapiens
Procedure: as §1

KB-31 (Epidermoid) = experiment: Antiproliferative activity (growth inhibition), KB-31 cells; assay type: cell-based; conditions: Homo sapiens; for pIC50: mean of three independent experiments; for IC50: under the conditions used for Table 1 (there nM), unit inferred
Procedure: as §1

[1] = tested on: KB-8511 (Epidermoid), Pgp-overexpressing sub-line of KB-31; experiment: Antiproliferative activity (growth inhibition), KB-8511 cells; conditions: Homo sapiens; for IC50: KB 3-1, read-out: IC50 KB-8511 (Epidermoid), Table 2, under the conditions used for Table 1 (there nM), unit inferred
Procedure: as §1

[2] = tested on: panel of human cancer cell lines; experiment: Antiproliferative activity across the cell line panel; assay type: cell-based
Description: Known epothilones have significant biological activity.

porcine tubulin = porcine tubulin (Sus scrofa, UniProt P02554); experiment: Induction of porcine tubulin polymerization; assay type: biochemical
PC3-M (prostate) = experiment: Antiproliferative activity (growth inhibition), PC3-M cells; assay type: cell-based; conditions: Homo sapiens, PC-3M, read-out: IC50 PC3-M (prostate)
Procedure: as §1

A549 (lung) = experiment: Antiproliferative activity (growth inhibition), A549 cells; assay type: cell-based; conditions: Homo sapiens
Procedure: as §1

[3] = tested on: Pgp-expressing MDR neuroblastoma cell line (SK-N SH); conditions: cited from earlier work
tubulin = conditions: Merck comparison with Taxol; cited from earlier work
[4] = tested on: Potorous tridactylis kidney epithelial (PtK2) cells; conditions: indirect immunofluorescence; cited from earlier work
[5] = tested on: IFN-γ-treated murine-macrophage; conditions: IFN-γ-treated murine macrophages; cited from earlier work
[6] = tested on: subcutaneous implantations of tumor tissues; conditions: mice, subcutaneous tumor implants, Sloan Kettering; cited from earlier work
[7] = MCF7, mean of three independent experiments, read-out: IC50 MCF-7 (breast)
[8] = HCT-116, mean of three independent experiments, read-out: IC50 HCT-116 (colon)
[9] = KB 3-1, Table 1, read-out: IC50 KB-31 (Epidermoid)
[10] = KB 3-1, read-out: IC50 KB-8511 (Epidermoid), Table 1, Pgp-overexpressing sub-line, mean of three independent experiments
[11] = antiproliferative potency, cell line panel of Table 1
[12] = 5 μM compound, relative to the effect of Epothilone B at 25 μM defined as 100%
[13] = mean of three independent experiments
[14] = A549, mean of three independent experiments, read-out: IC50 A549 (lung)
[15] = KB 3-1, Table 2, read-out: IC50 KB-31 (Epidermoid)
[16] = KB 3-1, read-out: IC50 KB-8511 (Epidermoid)
[17] = Table 2, under the conditions used for Table 1, unit not given
[18] = MCF7, read-out: IC50 MCF-7 (breast)
[19] = HCT-116, read-out: IC50 HCT-116 (colon)
[20] = KB 3-1, read-out: IC50 KB-31 (Epidermoid), Table 2
[21] = A549, read-out: IC50 A549 (lung)

Sequence of porcine tubulin (P02554 whole entry): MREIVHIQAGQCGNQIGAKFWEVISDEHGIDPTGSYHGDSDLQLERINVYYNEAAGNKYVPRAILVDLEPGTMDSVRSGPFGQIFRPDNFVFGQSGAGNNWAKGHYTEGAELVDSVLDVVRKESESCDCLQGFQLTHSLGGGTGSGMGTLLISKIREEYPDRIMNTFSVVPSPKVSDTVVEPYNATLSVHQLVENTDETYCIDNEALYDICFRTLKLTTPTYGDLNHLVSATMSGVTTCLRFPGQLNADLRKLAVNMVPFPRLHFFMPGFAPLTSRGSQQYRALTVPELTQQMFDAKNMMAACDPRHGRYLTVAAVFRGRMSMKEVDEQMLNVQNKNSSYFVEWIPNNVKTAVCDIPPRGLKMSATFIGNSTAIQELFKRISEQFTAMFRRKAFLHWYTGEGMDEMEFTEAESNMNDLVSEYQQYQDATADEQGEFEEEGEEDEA
Sequence of porcine tubulin (P02550 whole entry partner): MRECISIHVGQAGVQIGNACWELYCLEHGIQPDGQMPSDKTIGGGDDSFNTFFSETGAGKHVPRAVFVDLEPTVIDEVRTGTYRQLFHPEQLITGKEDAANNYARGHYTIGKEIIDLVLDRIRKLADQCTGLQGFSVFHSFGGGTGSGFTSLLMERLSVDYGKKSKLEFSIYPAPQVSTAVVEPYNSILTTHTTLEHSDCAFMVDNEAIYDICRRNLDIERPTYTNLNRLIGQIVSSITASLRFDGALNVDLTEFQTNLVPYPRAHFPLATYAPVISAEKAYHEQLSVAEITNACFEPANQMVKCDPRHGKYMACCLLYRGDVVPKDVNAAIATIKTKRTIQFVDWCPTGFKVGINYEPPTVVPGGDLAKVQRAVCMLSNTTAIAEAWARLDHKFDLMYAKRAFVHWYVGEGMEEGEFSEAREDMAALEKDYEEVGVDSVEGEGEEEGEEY

| SMILES | pIC50 (MCF-7 (breast); [7]) | pIC50 (HCT-116 (colon); [8]) | pIC50 (KB-31 (Epidermoid); [9]) | pIC50 [1, 10] | Tubulin Polym. (porcine tubulin; [12]) [%] | pIC50 (PC3-M (prostate); [13]) | pIC50 (A549 (lung); [14]) | Tubulin Polym. (porcine tubulin; [17]) | also measured |
| --- | --- | --- | --- | --- | --- | --- | --- | --- | --- |
| C/C1=C/C[C@@H](/C(C)=C/c2csc(C)n2)OC(=O)C[C@H](O)C(C)(C)C(=O)[C@H](C)[C@@H](O)[C@@H](C)/C=C\C1 [9,10-cis-Dehydroepothilone D, 9,10-dehydrodes-epoxyepothilone B] | 7.14 | 6.99 | 7.23 | 7.54 | 56 | 6.83 | 6.96 | – | fold less potent than epothilone B [2, 11]: 330- to 670 fold; fold less potent than natural epothilone D [2, 11]: 20- to 30 fold |
| C/C1=C/C[C@@H](/C(C)=C/c2csc(C)n2)OC(=O)C[C@H](O)C(C)(C)C(=O)[C@H](C)[C@@H](O)[C@@H](C)C(=O)OC1 [Bislactone] | – | – | – | – | – | – | – | 21.4 | IC50 (KB-31 (Epidermoid); [15]): 25.5 nM; pIC50 [1, 16]: 7.60 |
| C/C(=C\c1csc(C)n1)[C@@H]1CC2O[C@@H]2CCC[C@H](C)[C@H](O)[C@@H](C)C(=O)C(C)(C)[C@@H](O)CC(=O)O1 (stereo partly drawn) [Epothilone A] | – | – | – | – | – | – | – | – | activity against Pgp-expressing MDR neuroblastoma cell line [3]: active; potency as tubulin polymerization agent (rank order) (tubulin): epothilone B>epothilone A>Taxol |
| C/C(=C\c1csc(C)n1)[C@@H]1C[C@@H]2O[C@]2(C)CCC[C@H](C)[C@H](O)[C@@H](C)C(=O)C(C)(C)[C@@H](O)CC(=O)O1 [Epothilone B] | – | – | – | 9.80 | 95 | – | – | 81.4 | formation of microtubule bundles [4]: most active, inducing extensive formation of microtubule bundles; macrophage stimulatory activity as measured by nitric oxide release [5]: lacked any IFN-γ-treated murine-macrophage stimulatory activity; pIC50 (MCF-7 (breast); [18]): 9.54; pIC50 (HCT-116 (colon); [19]): 9.47; IC50 (KB-31 (Epidermoid); [20]): 0.24 nM; IC50 [1]: 0.15 nM; in vivo antitumor effect compared with Taxol [6]: superiority; potency as tubulin polymerization agent (rank order) (tubulin): epothilone B>epothilone A>Taxol; pIC50 (PC3-M (prostate)): 9.49; pIC50 (A549 (lung); [21]): 9.80 |
| C/C1=C/C[C@@H](/C(C)=C/c2csc(C)n2)OC(=O)C[C@H](O)C(C)(C)C(=O)[C@H](C)[C@@H](O)[C@@H](C)CCC1 [Epothilone D] | – | – | – | – | 88 | – | – | 62.3 | pIC50 (MCF-7 (breast); [18]): 8.64; pIC50 (HCT-116 (colon); [19]): 8.35; pIC50 (KB-31 (Epidermoid); KB 3-1, read-out: IC50 KB-31 (Epidermoid), Table 1): 8.71; IC50 (KB-31 (Epidermoid); [20]): 1.94 nM; pIC50 [1, 16]: 9.00; pIC50 (PC3-M (prostate)): 8.13; pIC50 (A549 (lung); [21]): 8.34 |
| CC(=O)O[C@H]1C(=O)[C@@]2(C)[C@H]([C@H](OC(=O)c3ccccc3)[C@]3(O)C[C@H](OC(=O)[C@H](O)[C@@H](NC(=O)c4ccccc4)c4ccccc4)C(C)=C1C3(C)C)[C@]1(OC(C)=O)CO[C@@H]1C[C@@H]2O [Paclitaxel (Taxol), Paclitaxel] | 8.49 | 8.31 | 8.57 | 6.07 | 53 | 8.18 | 8.28 | 38.9 | IC50 (KB-31 (Epidermoid); [15]): 2.9 nM; IC50 [1]: 661 nM |
| C/C1=C\C[C@@H](/C(C)=C/c2csc(C)n2)OC(=O)C[C@H](O)C(C)(C)C(=O)[C@H](C)[C@@H](O)[C@@H](C)/C=C/C1 [trans 9,10, trans 12,13-dehydroepothilone D] | 7.02 | 6.96 | 6.98 | 7.15 | 36 | 6.83 | 6.96 | – | average IC50 for growth inhibition, fold higher than cis 9,10-dehydroepothilone D ([2]; average over the cell line panel): 1.36 fold |
